We go through 32 molecules from US20130143835A1, “HCV Polymerase Inhibitors” (MEDIVIR AB, priority 2011, published 2013).

One test relates to HCV type 1b replicon in Huh-7 luc/neo (Huh-Luc) cells. Briefly: HCV replicon assay (Huh-Luc cells, luciferase read-out). It counts as cell-based. The settings on record: Hepatitis C virus, Huh-7, 72 h, inhibition of HCV replication, three days incubation, luciferase activity. An excerpt:
The in vitro antiviral activity against HCV of the compounds of formula I can be tested in a cellular HCV replicon system based on Lohmann et al. (1999) Science 285:110-113, with the further modifications described by Krieger et al. (2001) Journal of Virology 75: 4614-4624 (incorporated herein by reference), which is further exemplified in the examples section. This model, while not a complete infection model for HCV, is widely accepted as the most robust and efficient model of autonomous HCV RNA replication currently available. It will be appreciated that it is important to distinguish between compounds that specifically interfere with HCV functions from those that exert cytotoxic or cytostatic effects in the HCV replicon model, and as a consequence cause a decrease in HCV RNA or linked reporter enzyme concentration. Assays are known in the field for the evaluation of cellular cytotoxicity based for example on the activity of mitochondrial enzymes using fluorogenic redox dyes such as resazurin. Furthermore, cellular counter screens exist for the evaluation of non-selective inhibition of linked reporter gene activity, such as firefly luciferase. Appropriate cell types can be equipped by stable transfection with a luciferase reporter gene whose expression is dependent on a constitutively active gene promoter, and such cells can be used as a counter-screen to eliminate non-selective inhibitors.
The compounds of formula I may be examined for activity in the inhibition of HCV RNA replication in a cellular assay aimed at identifying compounds that inhibit a HCV functional cellular replicating cell line, also known as HCV replicons. A suitable cellular assay is based on a bicistronic expression construct, as described by Lohmann et al. (1999), Science vol. 285 pp. 110-113 with modifications described by Krieger et al. (2001), Journal of Virology 75: 4614-4624, in a multi-target screening strategy.
The assay utilizes the stably transfected cell line Huh-7 luc/neo (hereafter referred to as Huh-Luc). This cell line harbors an RNA encoding a bicistronic expression construct comprising the wild type NS3-NS5B regions of HCV type 1b translated from an Internal Ribosome Entry Site (IRES) from encephalomyocarditis virus (EMCV), preceded by a reporter portion (FfL-luciferase), and a selectable marker portion (neo^R, neomycine phosphotransferase). The construct is bordered by 5′ and 3′ NTRs (non-translated regions) from HCV type 1b. Continued culture of the replicon cells in the presence of G418 (neo^R) is dependent on the replication of the HCV RNA. The stably transfected replicon cells that express HCV RNA, which replicates autonomously and to high levels, encoding inter alia luciferase, are used for screening the antiviral compounds.
The replicon cells are plated in 384 well plates in the presence of the test and control compounds which are added in various concentrations. Following an incubation of three days, HCV replication is measured by assaying luciferase activity (using standard luciferase assay substrates and reagents and a Perkin Elmer ViewLux™ ultraHTS microplate imager). Replicon cells in the control cultures have high luciferase expression in the absence of any inhibitor. The inhibitory activity of a compound on luciferase activity is monitored on the Huh-Luc cells, enabling a dose-response curve for each test compound. EC50 values are then calculated, which value represents the amount of the compound required to decrease the level of detected luciferase activity by 50%, or more specifically, the ability of the genetically linked HCV replicon RNA to replicate.
One may read the EC50 as the concentration giving half of the maximal effect. Regarding `C[C@@]1(N)[C@H](O)[C@@H](CO)O[C@H]1n1ccc(=O)[nH]c1=O` [Example 1, 1-((2R,3R,4S,5R)-3-amino-4-hydroxy-5-(hydroxymethyl)-3-methyltetrahydrofuran-2-yl)pyrimidine-2,4(1H,3H)-dione], the EC50 is more than 50000 nM.

Still in this test, the particulars now being: inhibition of HCV replication, three days incubation, luciferase activity.
`C[C@H](NP(=O)(OC[C@H]1O[C@@H](n2ccc(=O)[nH]c2=O)[C@](C)(N)[C@@H]1O)Oc1ccccc1)C(=O)OC1CCCC1` (single isomer, unassigned) [Example 5A]: the EC50 turned out to be 4700 nM.

On to `C[C@H](NP(=O)(OC[C@H]1O[C@@H](n2ccc(=O)[nH]c2=O)[C@](C)(N)[C@@H]1O)Oc1ccccc1)C(=O)OC1CCCCCC1` (single isomer, unassigned) [Example 7A], for which the EC50 was found to be 3000 nM.

Take `CC(C)OC(=O)[C@H](C)NP(=O)(OC[C@H]1O[C@@H](n2ccc(=O)[nH]c2=O)[C@](C)(N)[C@@H]1O)Oc1ccccc1` (single isomer, unassigned) [Example 9A]: the EC50 is 13000 nM.

As for `C[C@H](NP(=O)(OC[C@H]1O[C@@H](n2ccc(=O)[nH]c2=O)[C@](C)(N)[C@@H]1O)Oc1ccccc1)C(=O)OC1CCCCC1` (single isomer, unassigned) [Example 12B], the EC50 turned out to be 130 nM.

On to `C[C@H](NP(=O)(OC[C@H]1O[C@@H](n2ccc(=O)[nH]c2=O)[C@](C)(N)[C@@H]1O)Oc1ccccc1)C(=O)OCc1ccccc1` (single isomer, unassigned) [Example 15B], for which the EC50 is 660 nM.

As to `CC[C@@H](C)OC(=O)[C@H](C)NP(=O)(OC[C@H]1O[C@@H](n2ccc(=O)[nH]c2=O)[C@](C)(N)[C@@H]1O)Oc1ccccc1` (single isomer, unassigned) [Example 21A], the EC50 was found to be 5100 nM.

As for `C[C@H](NP(=O)(OC[C@H]1O[C@@H](n2ccc(=O)[nH]c2=O)[C@](C)(N)[C@@H]1O)Oc1ccccc1)C(=O)OCC1CC1` (single isomer, unassigned) [Example 26B], the EC50 was 760 nM.

As to `CCC[C@H](C)OC(=O)[C@@H](C)NP(=O)(OC[C@H]1O[C@@H](n2ccc(=O)[nH]c2=O)[C@](C)(N)[C@@H]1O)Oc1ccccc1` (single isomer, unassigned) [Example 25B], the EC50 was 380 nM.

With `CC(C)OC(=O)[C@H](C)NP(=O)(OC[C@H]1O[C@@H](n2ccc(=O)[nH]c2=O)[C@](C)(N)[C@@H]1O)Oc1ccccc1` (some centres unmarked) [Example 2], the EC50 was found to be 2000 nM.

Regarding `CCOC(=O)[C@H](C)NP(=O)(OC[C@H]1O[C@@H](n2ccc(=O)[nH]c2=O)[C@](C)(N)[C@@H]1O)Oc1ccccc1` (single isomer, unassigned) [Example 11A], the EC50 was 6400 nM.

Turning to `CCC(CC)COC(=O)[C@H](C)NP(=O)(OC[C@H]1O[C@@H](n2ccc(=O)[nH]c2=O)[C@](C)(N)[C@@H]1O)Oc1ccccc1` (single isomer, unassigned) [Example 20B], the 50% effective concentration (EC50) worked out at 400 nM.

Regarding `C[C@H](NP(=O)(OC[C@H]1O[C@@H](n2ccc(=O)[nH]c2=O)[C@](C)(N)[C@@H]1O)Oc1ccccc1)C(=O)OC1CCCCCC1` (single isomer, unassigned) [Example 7B], the EC50 was found to be 190 nM.

Consider `CCC[C@H](C)OC(=O)[C@@H](C)NP(=O)(OC[C@H]1O[C@@H](n2ccc(=O)[nH]c2=O)[C@](C)(N)[C@@H]1O)Oc1ccccc1` (single isomer, unassigned) [Example 25A], for which the concentration for a half-maximal effect (EC50) was determined as 4700 nM.

On to `CC[C@@H](C)OC(=O)[C@H](C)NP(=O)(OC[C@H]1O[C@@H](n2ccc(=O)[nH]c2=O)[C@](C)(N)[C@@H]1O)Oc1ccccc1` (single isomer, unassigned) [Example 22B], for which the EC50 is 660 nM.

With `C[C@H](NP(=O)(OC[C@H]1O[C@@H](n2ccc(=O)[nH]c2=O)[C@](C)(N)[C@@H]1O)Oc1ccccc1)C(=O)OCC1CCCC1` (single isomer, unassigned) [Example 27A], the EC50 is 2200 nM.

Turning to `CCC(CC)OC(=O)[C@H](C)NP(=O)(OC[C@H]1O[C@@H](n2ccc(=O)[nH]c2=O)[C@](C)(N)[C@@H]1O)Oc1ccccc1` (single isomer, unassigned) [Example 28B], the 50% effective concentration (EC50) came to 480 nM.

Take `C[C@H](NP(=O)(OC[C@H]1O[C@@H](n2ccc(=O)[nH]c2=O)[C@](C)(N)[C@@H]1O)Oc1ccccc1)C(=O)OC1CCCC1` (single isomer, unassigned) [Example 5B]: the EC50 came to 470 nM.

For `COC(=O)[C@H](C)NP(=O)(OC[C@H]1O[C@@H](n2ccc(=O)[nH]c2=O)[C@](C)(N)[C@@H]1O)Oc1ccccc1` (single isomer, unassigned) [Example 16A], the EC50 turned out to be 5100 nM.

For `CCCCCOC(=O)[C@H](C)NP(=O)(OC[C@H]1O[C@@H](n2ccc(=O)[nH]c2=O)[C@](C)(N)[C@@H]1O)Oc1ccccc1` (single isomer, unassigned) [Example 18B], the EC50 was 320 nM.

For the molecule `C[C@H](NP(=O)(OC[C@H]1O[C@@H](n2ccc(=O)[nH]c2=O)[C@](C)(N)[C@@H]1O)Oc1ccccc1)C(=O)OCC1CC1` (single isomer, unassigned) [Example 26A], the EC50 turned out to be 1700 nM.

For `CC[C@@H](C)OC(=O)[C@H](C)NP(=O)(OC[C@H]1O[C@@H](n2ccc(=O)[nH]c2=O)[C@](C)(N)[C@@H]1O)Oc1ccccc1` (single isomer, unassigned) [Example 22A], the EC50 was found to be 21000 nM.

As for `C[C@H](NP(=O)(OC[C@H]1O[C@@H](n2ccc(=O)[nH]c2=O)[C@](C)(N)[C@@H]1O)Oc1ccccc1)C(=O)OC1CCC1` (single isomer, unassigned) [Example 8A], the EC50 stood at 1900 nM.

For the molecule `CCC(CC)COC(=O)[C@H](C)NP(=O)(OC[C@H]1O[C@@H](n2ccc(=O)[nH]c2=O)[C@](C)(N)[C@@H]1O)Oc1ccccc1` (single isomer, unassigned) [Example 20A], the EC50 stood at 1600 nM.

Turning to `C[C@H](NP(=O)(OC[C@H]1O[C@@H](n2ccc(=O)[nH]c2=O)[C@](C)(N)[C@@H]1O)Oc1ccccc1)C(=O)OC1CCCCCCC1` (single isomer, unassigned) [Example 10A], the EC50 was 15000 nM.

Regarding `CCCOC(=O)[C@H](C)NP(=O)(OC[C@H]1O[C@@H](n2ccc(=O)[nH]c2=O)[C@](C)(N)[C@@H]1O)Oc1ccccc1` (single isomer, unassigned) [Example 24B], the EC50 worked out at 1500 nM.

In the case of `CCCC(CCC)COC(=O)[C@H](C)NP(=O)(OC[C@H]1O[C@@H](n2ccc(=O)[nH]c2=O)[C@](C)(N)[C@@H]1O)Oc1ccccc1` (single isomer, unassigned) [Example 14A], the EC50 came out at 1600 nM.

With `CCCCOC(=O)[C@H](C)NP(=O)(OC[C@H]1O[C@@H](n2ccc(=O)[nH]c2=O)[C@](C)(N)[C@@H]1O)Oc1ccccc1` (single isomer, unassigned) [Example 19B], the concentration for a half-maximal effect (EC50) stood at 290 nM.

On to `C[C@H](NP(=O)(OC[C@H]1O[C@@H](n2ccc(=O)[nH]c2=O)[C@](C)(N)[C@@H]1O)Oc1ccccc1)C(=O)OC1CCCCCCC1` (single isomer, unassigned) [Example 10B], for which the EC50 was 290 nM.

As to `C[C@H](NP(=O)(OC[C@H]1O[C@@H](n2ccc(=O)[nH]c2=O)[C@](C)(N)[C@@H]1O)Oc1ccccc1)C(=O)OCC(C)(C)C` (single isomer, unassigned) [Example 13A], the EC50 was 2400 nM.

As for `C[C@H](NP(=O)(OC[C@H]1O[C@@H](n2ccc(=O)[nH]c2=O)[C@](C)(N)[C@@H]1O)Oc1ccccc1)C(=O)OCC1CCCC1` (single isomer, unassigned) [Example 27B], the EC50 was 380 nM.

As to `C[C@H](NP(=O)(OC[C@H]1O[C@@H](n2ccc(=O)[nH]c2=O)[C@](C)(N)[C@@H]1O)Oc1ccccc1)C(=O)OCc1ccccc1` (single isomer, unassigned) [Example 15A], the EC50 turned out to be 3100 nM.
